This note sets out measurements from PubChem BioAssay AID270 (DTP/NCI, 2004).

Molecules are shown by their SMILES. “And” between values parts separate entries of the source, which are not always exact repeats. Equal values may be shown once. Records with an inconclusive call do not appear.

This assay relates to BDF1 mice, s.c. Lewis lung carcinoma, T/C %. Description: NCI In Vivo Anticancer Drug Screen. Data for tumor model Lewis Lung Carcinoma (subcutaneous) in B6D2F1 (BDF1) mice. In outline:
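Antitumor effect in vivo is scored from survival or tumor burden, reported as treated relative to vehicle controls.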

The mark [1] stands for this setting: endpoint: mean tumor weight, dose: 250.0 mg/kg/injection, schedule: Q01DX011 (ip), vehicle: saline, higher = larger tumour.
[2] abbreviates: endpoint: mean tumor weight, dose: 500.0 mg/kg/injection, schedule: Q01DX011 (ip), vehicle: saline, higher = larger tumour.

Turning to `Nc1nc(SN=Nc2ccc(S(N)(=O)=O)cc2)c2[nH]cnc2n1`, the T/C (endpoint: mean tumor weight, dose: 0.6 mg/kg/injection, schedule: Q01DX011 (ip), vehicle: saline, higher = larger tumour) is 64 % of control; the T/C (endpoint: mean tumor weight, dose: 1.0 mg/kg/injection, schedule: Q01DX011 (ip), vehicle: saline, higher = larger tumour) is 43 % of control; the T/C (endpoint: mean tumor weight, dose: 1.5 mg/kg/injection, schedule: Q01DX011 (ip), vehicle: saline, higher = larger tumour) is 93 % of control; the T/C (endpoint: mean tumor weight, dose: 2.2 mg/kg/injection, schedule: Q01DX011 (ip), vehicle: other, higher = larger tumour) was 67 % of control; the T/C (endpoint: mean tumor weight, dose: 2.2 mg/kg/injection, schedule: Q01DX011 (ip), vehicle: saline, higher = larger tumour) is 52 % of control and 67 % of control; the T/C (endpoint: mean tumor weight, dose: 3.3 mg/kg/injection, schedule: Q01DX011 (ip), vehicle: other, higher = larger tumour) is 72 % of control. Moreover, the T/C is, setting by setting: (endpoint: mean tumor weight, dose: 3.3 mg/kg/injection, schedule: Q01DX011 (ip), vehicle: saline, higher = larger tumour) 36 % of control; (endpoint: mean tumor weight, dose: 5.0 mg/kg/injection, schedule: Q01DX011 (ip), vehicle: other, higher = larger tumour) 35 % of control; (endpoint: mean tumor weight, dose: 5.0 mg/kg/injection, schedule: Q01DX011 (ip), vehicle: saline, higher = larger tumour) 40 % of control; (endpoint: mean tumor weight, dose: 7.5 mg/kg/injection, schedule: Q01DX011 (ip), vehicle: other, higher = larger tumour) 11 % of control; (endpoint: mean tumor weight, dose: 7.5 mg/kg/injection, schedule: Q01DX011 (ip), vehicle: saline, higher = larger tumour) 19 % of control.

Take `CCCCOC(=O)Nc1ccc(OCC)cc1`: the T/C reads like this: (endpoint: mean tumor weight, dose: 35.0 mg/kg/injection, schedule: Q01DX011 (ip), vehicle: carboxymethylcellulose (CMC), higher = larger tumour) 63 % of control; (endpoint: mean tumor weight, dose: 70.0 mg/kg/injection, schedule: Q01DX011 (ip), vehicle: carboxymethylcellulose (CMC), higher = larger tumour) 85 % of control; (endpoint: mean tumor weight, dose: 140.0 mg/kg/injection, schedule: Q01DX011 (ip), vehicle: carboxymethylcellulose (CMC), higher = larger tumour) 68 % of control; (endpoint: mean tumor weight, dose: 280.0 mg/kg/injection, schedule: Q01DX011 (ip), vehicle: carboxymethylcellulose (CMC), higher = larger tumour) 69 % of control.

Regarding `CC[C@]1(O)C[C@H]2CN(CCc3c([nH]c4ccccc34)[C@@](C(=O)OC)(c3cc4c(cc3OC)N(C)[C@H]3[C@@](O)(C(=O)OC)[C@H](OC(C)=O)[C@]5(CC)C=CCN6CC[C@]43[C@@H]65)C2)C1`, the T/C (endpoint: mean tumor weight, dose: 0.12 mg/kg/injection, schedule: Q01DX011 (ip), vehicle: saline, higher = larger tumour) was 109 % of control; the T/C (endpoint: mean tumor weight, dose: 0.24 mg/kg/injection, schedule: Q01DX011 (ip), vehicle: saline, higher = larger tumour) is 94 % of control; the T/C (endpoint: mean tumor weight, dose: 0.36 mg/kg/injection, schedule: Q01DX011 (ip), vehicle: saline, higher = larger tumour) is 84 % of control; the T/C (endpoint: mean tumor weight, dose: 0.54 mg/kg/injection, schedule: Q01DX011 (ip), vehicle: saline, higher = larger tumour) is 99 % of control; the T/C (endpoint: mean tumor weight, dose: 0.8 mg/kg/injection, schedule: Q01DX011 (ip), vehicle: saline, higher = larger tumour) was 60 % of control; the T/C (endpoint: mean tumor weight, dose: 0.81 mg/kg/injection, schedule: Q01DX011 (ip), vehicle: saline, higher = larger tumour) is 111 % of control. Further, the T/C by setting is: (endpoint: mean tumor weight, dose: 125.0 micrograms/kg/injection, schedule: Q01DX011 (ip), vehicle: saline, higher = larger tumour) 61 % of control; (endpoint: mean tumor weight, dose: 250.0 micrograms/kg/injection, schedule: Q01DX011 (ip), vehicle: saline, higher = larger tumour) 53 % of control; (endpoint: median survival time, dose: 0.06 mg/kg/injection, schedule: Q01DX009 (ip), vehicle: saline, higher = longer survival) 101 % of control and 118 % of control; (endpoint: median survival time, dose: 0.12 mg/kg/injection, schedule: Q01DX009 (ip), vehicle: saline, higher = longer survival) 88 % of control; (endpoint: median survival time, dose: 0.25 mg/kg/injection, schedule: Q01DX009 (ip), vehicle: saline, higher = longer survival) 96 % of control.

Regarding `CC(C)NC(=O)c1ccc(N/N=[N+](/C)[O-])cc1`, the T/C reads like this: (endpoint: median survival time, dose: 6.25 mg/kg/injection, schedule: Q01DX005 (ip), vehicle: saline with Tween-80, higher = longer survival) 105 % of control; (endpoint: median survival time, dose: 12.5 mg/kg/injection, schedule: Q01DX005 (ip), vehicle: saline with Tween-80, higher = longer survival) 102 % of control; (endpoint: median survival time, dose: 25.0 mg/kg/injection, schedule: Q01DX005 (ip), vehicle: saline with Tween-80, higher = longer survival) 106 % of control; (endpoint: median survival time, dose: 50.0 mg/kg/injection, schedule: Q01DX005 (ip), vehicle: saline with Tween-80, higher = longer survival) 90 % of control and 103 % of control; (endpoint: median survival time, dose: 100.0 mg/kg/injection, schedule: Q01DX005 (ip), vehicle: saline with Tween-80, higher = longer survival) 111 % of control and 112 % of control; (endpoint: median survival time, dose: 200.0 mg/kg/injection, schedule: Q01DX005 (ip), vehicle: saline with Tween-80, higher = longer survival) 110 % of control.

Regarding `N=C(N)Sc1cc(O)ccc1O`, the T/C was 102 % of control (endpoint: median survival time, dose: 12.5 mg/kg/injection, schedule: Q01DX009 (ip), vehicle: other, higher = longer survival); 120 % of control (endpoint: median survival time, dose: 18.75 mg/kg/injection, schedule: Q01DX009 (ip), vehicle: saline, higher = longer survival); 103 % of control (endpoint: median survival time, dose: 25.0 mg/kg/injection, schedule: Q01DX009 (ip), vehicle: other, higher = longer survival); 92 % of control (endpoint: median survival time, dose: 37.5 mg/kg/injection, schedule: Q01DX009 (ip), vehicle: saline, higher = longer survival); 93 % of control (endpoint: median survival time, dose: 50.0 mg/kg/injection, schedule: Q01DX009 (ip), vehicle: other, higher = longer survival); 100 % of control (endpoint: median survival time, dose: 100.0 mg/kg/injection, schedule: Q01DX009 (ip), vehicle: other, higher = longer survival). Further, the T/C by setting is: (endpoint: median survival time, dose: 200.0 mg/kg/injection, schedule: Q01DX009 (ip), vehicle: other, higher = longer survival) 93 % of control; (endpoint: median survival time, dose: 300.0 mg/kg/injection, schedule: Q01DX009 (ip), vehicle: saline, higher = longer survival) 91 % of control.

Consider `C/C=C1\CNC2Cc3c([nH]c4ccccc34)C(=O)CC1C2C(=O)OC` (stereo not drawn), for which the T/C (endpoint: mean tumor weight, dose: 25.0 mg/kg/injection, schedule: Q01DX011 (ip), vehicle: saline, higher = larger tumour) was 88 % of control; the T/C (endpoint: mean tumor weight, dose: 50.0 mg/kg/injection, schedule: Q01DX011 (ip), vehicle: saline, higher = larger tumour) is 97 % of control; the T/C (endpoint: mean tumor weight, dose: 100.0 mg/kg/injection, schedule: Q01DX011 (ip), vehicle: saline, higher = larger tumour) is 84 % of control.

Consider `CC1OC(Oc2c(-c3ccc(O)c(O)c3)oc3cc(O)cc(O)c3c2=O)C(O)C(O)C1O` (stereo not drawn), for which the T/C (endpoint: mean tumor weight, dose: 62.5 mg/kg/injection, schedule: Q01DX011 (ip), vehicle: saline, higher = larger tumour) was 92 % of control; the T/C (endpoint: mean tumor weight, dose: 125.0 mg/kg/injection, schedule: Q01DX011 (ip), vehicle: saline, higher = larger tumour) is 93 % of control; the T/C under setting [1] is 99 % of control; the T/C under setting [2] is 51 % of control.

As to `CC(CN1CC(=O)NC(=O)C1)N1CC(=O)NC(=O)C1` (stereo not drawn), the T/C (endpoint: median survival time, dose: 0.5 mg/kg/injection, schedule: Q01DX009 (ip), vehicle: saline, higher = longer survival) is 91 % of control; the T/C (endpoint: median survival time, dose: 1.0 mg/kg/injection, schedule: Q01DX009 (ip), vehicle: saline, higher = longer survival) is 109 % of control; the T/C (endpoint: median survival time, dose: 1.9 mg/kg/injection, schedule: Q01DX009 (ip), vehicle: saline, higher = longer survival) is 112 % of control; the T/C (endpoint: median survival time, dose: 3.75 mg/kg/injection, schedule: Q01DX009 (ip), vehicle: saline, higher = longer survival) was 106 % of control; the T/C (endpoint: median survival time, dose: 7.5 mg/kg/injection, schedule: Q01DX009 (ip), vehicle: saline, higher = longer survival) was 108 % of control; the T/C (endpoint: median survival time, dose: 15.0 mg/kg/injection, schedule: Q01DX009 (ip), vehicle: Klucel (hydroxypropylcellulose) (HPC), higher = longer survival) was 112 % of control. Also, the T/C is, setting by setting: (endpoint: median survival time, dose: 30.0 mg/kg/injection, schedule: Q01DX009 (ip), vehicle: Klucel (hydroxypropylcellulose) (HPC), higher = longer survival) 86 % of control; (endpoint: median survival time, dose: 60.0 mg/kg/injection, schedule: Q01DX009 (ip), vehicle: Klucel (hydroxypropylcellulose) (HPC), higher = longer survival) 116 % of control; (endpoint: median tumor weight (est.), dose: 13.0 mg/kg/injection, schedule: Q01DX011 (ip), vehicle: saline, higher = larger tumour) 57 % of control and 74 % of control; (endpoint: median tumor weight (est.), dose: 20.0 mg/kg/injection, schedule: Q01DX011 (ip), vehicle: saline, higher = larger tumour) 58 % of control and 79 % of control; (endpoint: median tumor weight (est.), dose: 30.0 mg/kg/injection, schedule: Q01DX011 (ip), vehicle: saline, higher = larger tumour) 68 % of control.

For the compound `Cc1ccc2c(Nc3ccc(NS(C)(=O)=O)cc3)c3ccccc3nc2c1C`, the T/C was 98 % of control (endpoint: median survival time, dose: 10.0 mg/kg/injection, schedule: Q01DX009 (ip), vehicle: other, higher = longer survival) and 124 % of control (endpoint: median survival time, dose: 40.0 mg/kg/injection, schedule: Q01DX009 (ip), vehicle: other, higher = longer survival).

For `CN(CC(=O)O)C(=N)N`, the T/C was 57 % of control under setting [1]; 53 % of control under setting [2]; 67 % of control (endpoint: mean tumor weight, dose: 1000.0 mg/kg/injection, schedule: Q01DX011 (ip), vehicle: saline, higher = larger tumour).
